Converted amounts (≈) assume the structure as drawn.
What was measured:
Assay in all cases: Antibacterial spectra, MIC by standard method of Japan Society of Chemotherapy
Assay type in all cases: cell-based
[1] = tested on: S. pneumoniae 2054; settings: Gram +, 10^6 cells/ml
[2] = tested on: Citrobacter freundii IID 976; settings: 10^6 cells/ml
[3] = tested on: P. morganii IID 602; settings: Morganella morganii, IID602, Gram −, 10^6 cells/ml, read-out: Minimum Inhibitory Concentration
[4] = tested on: Proteus vulgaris IFO 3167; settings: Proteus vulgaris IFO 3167, Gram −, 10^6 cells/ml
[5] = tested on: Shigella sonnei IID 969; settings: 10^6 cells/ml
Description: Experiment 1. Antibacterial spectra
Antibacterial activity was determined with the standard method recommended by Japan Society of Chemotherapy.

[6] = tested on: P. mirabilis IID 994; settings: 10^6 cells/ml
[7] = tested on: Bacillus subtilis PCI 219; settings: PCI219, Gram +, 10^6 cells/ml, read-out: Minimum Inhibitory Concentration
[8] = tested on: Pseudomonas aeruginosa IFO 12689; settings: 10^6 cells/ml
[9] = tested on: Serratia marcescens IID 618; settings: 10^6 cells/ml
[10] = tested on: S. faecalis IID 682; settings: Enterococcus faecalis, IID682, Gram +, 10^6 cells/ml, read-out: Minimum Inhibitory Concentration
[11] = tested on: E. coli ATCC 10536; settings: 10^6 cells/ml
[12] = tested on: Alcaligenes faecalis 0104002; settings: Gram −, 10^6 cells/ml
[13] = tested on: Bacteroides fragilis GM 7000; settings: 10^6 cells/ml
[14] = tested on: S. epidermidis IID 866; settings: 10^6 cells/ml
[15] = tested on: Klebsiella pneumoniae KY 6445; settings: 10^6 cells/ml
[16] = tested on: Bacteroides fragilis 25285; settings: Gram −, 10^6 cells/ml
[17] = tested on: Pseudomonas aeruginosa V-1; settings: 10^6 cells/ml
[18] = tested on: S. pyogenes IID 689 (S-8); settings: 10^6 cells/ml
[19] = tested on: Salmonella enteritidis IID 604; settings: Gram −, 10^6 cells/ml
[20] = tested on: Enterobacter cloacae IID 977; settings: 10^6 cells/ml
[21] = tested on: Streptococcus pyogenes IID 692; settings: 10^6 cells/ml
[22] = tested on: S. aureus IID 670 (Terajima); settings: 10^6 cells/ml
[23] = tested on: Bacteroides fragilis 0558; settings: Gram −, 10^6 cells/ml
[24] = tested on: Staphylococcus aureus 209 P; settings: Gram +, 10^6 cells/ml
[25] = tested on: Acinetobacter anitratus IID 876; settings: 10^6 cells/ml
[26] = tested on: E. coli NIHJ JC-2; settings: E. coli NIHJ JC-2, Gram −, 10^6 cells/ml
[27] = tested on: Yersinia enterocolitica IID 981; settings: 10^6 cells/ml
[28] = read-out: Minimum Inhibitory Concentration

O=C(O)c1cn(C2CC2)c2c(Cl)c(N3CCNCC3)c(F)cc2c1=O [Example 25, 8-Chloro-l-cyclopropyl-6-fluoro-l,4-dihydro-4-oxo-7-(1-piperazinyl)quinoline-3-carboxylic acid]
ratio of activity per that of Ciprofloxacin (bracketed number) [1]: 4
MIC ([1]; Streptococcus pneumoniae, read-out: Minimum Inhibitory Concentration): 0.39 mg/L (≈ 1.07 µM)
ratio of activity per that of Ciprofloxacin (bracketed number) ([2]; Gram −): 0.5
MIC ([2]; IID976, Gram −, read-out: Minimum Inhibitory Concentration): 0.0125 mg/L (≈ 0.0342 µM)
MIC [3]: 0.0125 mg/L (≈ 0.0342 µM)
MIC ([4]; IFO3167, read-out: Minimum Inhibitory Concentration): ≤ 0.006 mg/L
ratio of activity per that of Ciprofloxacin (bracketed number) [4]: 1
ratio of activity per that of Ciprofloxacin (bracketed number) ([5]; Gram −): 1
MIC ([5]; IID969, Gram −, read-out: Minimum Inhibitory Concentration): ≤ 0.006 mg/L
ratio of activity per that of Ciprofloxacin (bracketed number) ([6]; Gram −): 1
MIC ([6]; Proteus mirabilis, IID994, Gram −, read-out: Minimum Inhibitory Concentration): 0.0125 mg/L (≈ 0.0342 µM)
MIC [7]: 0.0125 mg/L (≈ 0.0342 µM)
ratio of activity per that of Ciprofloxacin (bracketed number) ([8]; Gram −): 1
MIC ([8]; IFO12689, Gram −, read-out: Minimum Inhibitory Concentration): 0.39 mg/L (≈ 1.07 µM)
ratio of activity per that of Ciprofloxacin (bracketed number) ([9]; Gram −): 16
MIC ([9]; IID618, Gram −, read-out: Minimum Inhibitory Concentration): 0.025 mg/L (≈ 0.0683 µM)
MIC [10]: 0.2 mg/L (≈ 0.547 µM)
MIC ([11]; Escherichia coli, ATCC10536, Gram −, read-out: Minimum Inhibitory Concentration): ≤ 0.006 mg/L
ratio of activity per that of Ciprofloxacin (bracketed number) ([11]; Gram −): 2
ratio of activity per that of Ciprofloxacin (bracketed number) [12]: 2
MIC [12, 28]: 0.02 mg/L (≈ 0.0547 µM)
MIC ([13]; GM7000, Gram −, read-out: Minimum Inhibitory Concentration): 0.39 mg/L (≈ 1.07 µM)
ratio of activity per that of Ciprofloxacin (bracketed number) ([13]; Gram −): 8
ratio of activity per that of Ciprofloxacin (bracketed number) ([14]; Gram +): 8
MIC ([14]; Staphylococcus epidermidis, IID866, Gram +, read-out: Minimum Inhibitory Concentration): 0.05 mg/L (≈ 0.137 µM)
ratio of activity per that of Ciprofloxacin (bracketed number) ([15]; Gram −): 1
MIC ([15]; KY6445, Gram −, read-out: Minimum Inhibitory Concentration): 0.0125 mg/L (≈ 0.0342 µM)
ratio of activity per that of Ciprofloxacin (bracketed number) [16]: 16
MIC [16, 28]: 0.2 mg/L (≈ 0.547 µM)
ratio of activity per that of Ciprofloxacin (bracketed number) ([17]; Gram −): 4
MIC ([17]; V1, Gram −, read-out: Minimum Inhibitory Concentration): 0.05 mg/L (≈ 0.137 µM)
ratio of activity per that of Ciprofloxacin (bracketed number) ([18]; Gram +): 2
MIC ([18]; Streptococcus pyogenes, IID689, Gram +, read-out: Minimum Inhibitory Concentration): 0.2 mg/L (≈ 0.547 µM)
ratio of activity per that of Ciprofloxacin (bracketed number) [19]: 2
MIC ([19]; Salmonella enterica, read-out: Minimum Inhibitory Concentration): 0.0125 mg/L (≈ 0.0342 µM)
ratio of activity per that of Ciprofloxacin (bracketed number) ([20]; Gram −): 2
MIC ([20]; IID977, Gram −, read-out: Minimum Inhibitory Concentration): 0.025 mg/L (≈ 0.0683 µM)
ratio of activity per that of Ciprofloxacin (bracketed number) ([21]; Gram +): 2
MIC ([21]; IID692, Gram +, read-out: Minimum Inhibitory Concentration): 0.39 mg/L (≈ 1.07 µM)
ratio of activity per that of Ciprofloxacin (bracketed number) ([22]; Gram +): 4
MIC ([22]; Staphylococcus aureus, IID670, Gram +, read-out: Minimum Inhibitory Concentration): 0.1 mg/L (≈ 0.273 µM)
ratio of activity per that of Ciprofloxacin (bracketed number) [23]: 16
MIC [23, 28]: 0.2 mg/L (≈ 0.547 µM)
ratio of activity per that of Ciprofloxacin (bracketed number) [24]: 8
MIC [24, 28]: 0.05 mg/L (≈ 0.137 µM)
MIC ([25]; Acinetobacter calcoaceticus, IID876, Gram −, read-out: Minimum Inhibitory Concentration): 0.05 mg/L (≈ 0.137 µM)
ratio of activity per that of Ciprofloxacin (bracketed number) ([25]; Gram −): 0.5
ratio of activity per that of Ciprofloxacin (bracketed number) [26]: 1
MIC ([26]; Escherichia coli, NIHJJC2, read-out: Minimum Inhibitory Concentration): ≤ 0.006 mg/L
ratio of activity per that of Ciprofloxacin (bracketed number) ([27]; Gram −): 2
MIC ([27]; IID981, Gram −, read-out: Minimum Inhibitory Concentration): 0.025 mg/L (≈ 0.0683 µM)

From patent EP0195841A1, “Quinolinecarboxylic acid derivatives and process for their preparation” (KYORIN PHARMACEUTICAL CO., LTD., priority 1985, dated 1986)
